Tested on: skin barrier and inflammation biomarkers in lesional skin biopsies
Experiment: qRT-PCR (TLDA) biomarker gene expression in lesional skin biopsies (Example 3)
Type: in vivo, human
Conditions: fold change, topical niclosamide 2% once daily 3 weeks, AD lesional skin
Method: Patients received topical applications of a niclosamide 2% composition and vehicle once daily for 3 weeks, followed by a 1-week follow up period. Topical niclosamide 2% and vehicle was applied on two separate target lesions of atopic dermatitis (lesions of at least 3×3-cm that are at least 2 cm apart, excluding the face, scalp, genitals, hands, and feet). The application areas (5×5-cm) were randomized (1:1) to once daily application of niclosamide 2% or vehicle at 5 mg/cm^2 without occlusion 6 days per week. Patients came to the study site for all study product application for a total of 3 weeks.
Skin barrier and inflammation biomarker levels were determined from lesional skin biopsies from application areas.
The skin biopsy samples were analysed by immunohistochemistry (IHC), and by gene expression studies by RT-PCR using TaqMan Low Density Array (TLDA), and by microarray using Affymetrix U133A Plus 2. The immunohistochemistry (IHC) was used to analyse cell biomarkers. The methodologies as disclosed by Guttman-Yassky et al, “Major differences in inflammatory dendritic cells and their products distinguish atopic dermatitis from psoriasis”, The Journal of Allergy and Clinical Immunology, vol. 119, issue 5, pages 1210-1217, 2007, were followed except for that U133A Plus 2-set Gene Chip probe arrays was used instead of U95A-set Gene Chip probe arrays.
Expression values (threshold cycle [Ct]) were normalized to Rplp0 by negatively transforming the Ct values to −dCt (IL17A was normalized to hARP, as analysed by qPCR). The undetected −dCt values were estimated for each gene as the 20% of the minimum across all samples. qRT-PCR expression data were modelled using a mixed effect model with Visit and Treatment Area as a fixed effect and a random intercept for each patient. This formulation intrinsically models the within patient correlation structure as in the case of a paired t-test. This approach introduces less bias than restricting the analysis for those patients who completed the study. Contrasts were used to estimate the fold changes with treatment within each treatment group and conduct hypothesis testing.

[1] = Day 22, vs vehicle-treated lesion
[2] = Day 22 vs baseline, listed as niclosamide

O=C(Nc1ccc([N+](=O)[O-])cc1Cl)c1cc(Cl)ccc1O [Niclosamide, niclosamide]
CAMP expression, Niclosamide vs. Vehicle (qRT-PCR) [1]: −1.33 | CCL5 expression, Niclosamide vs. Vehicle (qRT-PCR) [1]: −1.03 | CCL17 expression, Niclosamide vs. Vehicle (qRT-PCR) [1]: −1.37 | CCL18 expression, Niclosamide vs. Vehicle (qRT-PCR) [1]: −2.02 | CCL20 expression, Niclosamide vs. Vehicle (qRT-PCR) [1]: −2.25 | CCL22 expression, Niclosamide vs. Vehicle (qRT-PCR) [1]: −1.49 | CCL26 expression, Niclosamide vs. Vehicle (qRT-PCR) [1]: −1.49 | CXCL1 expression, Niclosamide vs. Vehicle (qRT-PCR) [1]: −1.63 | CXCL2 expression, Niclosamide vs. Vehicle (qRT-PCR) [1]: −1.21 | CXCL9 expression, Niclosamide vs. Vehicle (qRT-PCR) [1]: 1.16 | CXCL10 expression, Niclosamide vs. Vehicle (qRT-PCR) [1]: −1.10 | DEFB4A/DEFB4B expression, Niclosamide vs. Vehicle (qRT-PCR) [1]: −2.06 | FLG expression, Niclosamide vs. Vehicle (qRT-PCR) [1]: 1.30 | FOXP3 expression, Niclosamide vs. Vehicle (qRT-PCR) [1]: −1.14 | IFNg expression, Niclosamide vs. Vehicle (qRT-PCR) [1]: 1.19 | IL1B expression, Niclosamide vs. Vehicle (qRT-PCR) [1]: −1.01 | IL2 expression, Niclosamide vs. Vehicle (qRT-PCR) [1]: −1.36 | IL5 expression, Niclosamide vs. Vehicle (qRT-PCR) [1]: −1.47 | IL6 expression, Niclosamide vs. Vehicle (qRT-PCR) [1]: −1.24 | IL8 expression, Niclosamide vs. Vehicle (qRT-PCR) [1]: −1.46 | IL9 expression, Niclosamide vs. Vehicle (qRT-PCR) [1]: −1.17 | IL10 expression, Niclosamide vs. Vehicle (qRT-PCR) [1]: −1.51 | IL12A expression, Niclosamide vs. Vehicle (qRT-PCR) [1]: 1.09 | IL12B expression, Niclosamide vs. Vehicle (qRT-PCR) [1]: −1.42 | IL13 expression, Niclosamide vs. Vehicle (qRT-PCR) [1]: −1.59 | IL15RA expression, Niclosamide vs. Vehicle (qRT-PCR) [1]: −1.12 | IL15 expression, Niclosamide vs. Vehicle (qRT-PCR) [1]: −1.14 | IL17A expression, Niclosamide vs. Vehicle (qRT-PCR) [1]: −1.40 | IL17C expression, Niclosamide vs. Vehicle (qRT-PCR) [1]: −2.35 | IL17F expression, Niclosamide vs. Vehicle (qRT-PCR) [1]: 1.37 | IL19 expression, Niclosamide vs. Vehicle (qRT-PCR) [1]: 1.16 | IL22 expression, Niclosamide vs. Vehicle (qRT-PCR) [1]: −1.97 | IL23A expression, Niclosamide vs. Vehicle (qRT-PCR) [1]: −1.37 | IL31 expression, Niclosamide vs. Vehicle (qRT-PCR) [1]: −1.46 | IL33 expression, Niclosamide vs. Vehicle (qRT-PCR) [1]: 1.11 | KRT16 expression, Niclosamide vs. Vehicle (qRT-PCR) [1]: −1.60 | LOR expression, Niclosamide vs. Vehicle (qRT-PCR) [1]: 1.27 | MMP12 expression, Niclosamide vs. Vehicle (qRT-PCR) [1]: −1.90 | PI3 expression, Niclosamide vs. Vehicle (qRT-PCR) [1]: −1.93 | PPL expression, Niclosamide vs. Vehicle (qRT-PCR) [1]: 1.04 | S100A7 expression, Niclosamide vs. Vehicle (qRT-PCR) [1]: −2.20 | S100A8 expression, Niclosamide vs. Vehicle (qRT-PCR) [1]: −2.02 | S100A9 expression, Niclosamide vs. Vehicle (qRT-PCR) [1]: −1.97 | S100A12 expression, Niclosamide vs. Vehicle (qRT-PCR) [1]: −2.11 | TSLPR expression, Niclosamide vs. Vehicle (qRT-PCR) [1]: −1.36 | CAMP expression, Niclosamide vs. Predose (qRT-PCR) (Day 22 vs baseline): −3.02 | CCL5 expression, Niclosamide vs. Predose (qRT-PCR) (Day 22 vs baseline): −1.22 | CCL17 expression, Niclosamide vs. Predose (qRT-PCR) (Day 22 vs baseline): −2.02 | CCL18 expression, Niclosamide vs. Predose (qRT-PCR) (Day 22 vs baseline): −2.45 | CCL20 expression, Niclosamide vs. Predose (qRT-PCR) (Day 22 vs baseline): −1.96 | CCL22 expression, Niclosamide vs. Predose (qRT-PCR) (Day 22 vs baseline): −1.95 | CCL26 expression, Niclosamide vs. Predose (qRT-PCR) (Day 22 vs baseline): −1.03 | CXCL1 expression, Niclosamide vs. Predose (qRT-PCR) (Day 22 vs baseline): −2.80 | CXCL2 expression, Niclosamide vs. Predose (qRT-PCR) (Day 22 vs baseline): −1.89 | CXCL9 expression, Niclosamide vs. Predose (qRT-PCR) (Day 22 vs baseline): −1.51 | CXCL10 expression, Niclosamide vs. Predose (qRT-PCR) (Day 22 vs baseline): −1.64 | DEFB4A/DEFB4B expression, Niclosamide vs. Predose (qRT-PCR) (Day 22 vs baseline): −4.09 | FLG expression, Niclosamide vs. Predose (qRT-PCR) (Day 22 vs baseline): 1.50 | FOXP3 expression, Niclosamide vs. Predose (qRT-PCR) (Day 22 vs baseline): −1.39 | IFNg expression, Niclosamide vs. Predose (qRT-PCR) (Day 22 vs baseline): −1.11 | IL1B expression, Niclosamide vs. Predose (qRT-PCR) (Day 22 vs baseline): −1.64 | IL2 expression, Niclosamide vs. Predose (qRT-PCR) (Day 22 vs baseline): −1.20 | IL5 expression, Niclosamide vs. Predose (qRT-PCR) (Day 22 vs baseline): −2.38 | IL6 expression, Niclosamide vs. Predose (qRT-PCR) (Day 22 vs baseline): −2.34 | IL8 expression, Niclosamide vs. Predose (qRT-PCR) (Day 22 vs baseline): −3.78 | IL9 expression, Niclosamide vs. Predose (qRT-PCR) (Day 22 vs baseline): −1.91 | IL10 expression, Niclosamide vs. Predose (qRT-PCR) (Day 22 vs baseline): −1.85 | IL12A expression, Niclosamide vs. Predose (qRT-PCR) (Day 22 vs baseline): −1.01 | IL12B expression, Niclosamide vs. Predose (qRT-PCR) (Day 22 vs baseline): −2.01 | IL13 expression, Niclosamide vs. Predose (qRT-PCR) (Day 22 vs baseline): −2.06 | IL15RA expression, Niclosamide vs. Predose (qRT-PCR) (Day 22 vs baseline): −1.46 | IL15 expression, Niclosamide vs. Predose (qRT-PCR) (Day 22 vs baseline): −1.47 | IL17A expression, Niclosamide vs. Predose (qRT-PCR) (Day 22 vs baseline): −2.23 | IL17C expression, Niclosamide vs. Predose (qRT-PCR) (Day 22 vs baseline): −3.24 | IL17F expression, Niclosamide vs. Predose (qRT-PCR) (Day 22 vs baseline): 1.02 | IL19 expression, Niclosamide vs. Predose (qRT-PCR) (Day 22 vs baseline): −3.26 | IL22 expression, Niclosamide vs. Predose (qRT-PCR) (Day 22 vs baseline): −2.86 | IL23A expression, Niclosamide vs. Predose (qRT-PCR) (Day 22 vs baseline): −2.13 | IL31 expression, Niclosamide vs. Predose (qRT-PCR) (Day 22 vs baseline): −1.85 | IL33 expression, Niclosamide vs. Predose (qRT-PCR) (Day 22 vs baseline): −1.08 | KRT16 expression, Niclosamide vs. Predose (qRT-PCR) (Day 22 vs baseline): −3.88 | LOR expression, Niclosamide vs. Predose (qRT-PCR) (Day 22 vs baseline): 1.67 | MMP12 expression, Niclosamide vs. Predose (qRT-PCR) (Day 22 vs baseline): −3.27 | PI3 expression, Niclosamide vs. Predose (qRT-PCR) (Day 22 vs baseline): −4.52 | PPL expression, Niclosamide vs. Predose (qRT-PCR) (Day 22 vs baseline): −1.07 | S100A7 expression, Niclosamide vs. Predose (qRT-PCR) (Day 22 vs baseline): −3.04 | S100A8 expression, Niclosamide vs. Predose (qRT-PCR) (Day 22 vs baseline): −3.85 | S100A9 expression, Niclosamide vs. Predose (qRT-PCR) (Day 22 vs baseline): −3.47 | S100A12 expression, Niclosamide vs. Predose (qRT-PCR) (Day 22 vs baseline): −4.29 | TSLPR expression, Niclosamide vs. Predose (qRT-PCR) (Day 22 vs baseline): −1.82 | FLG expression, Niclosamide vs. Predose (qRT-PCR) [2]: increased significantly | LOR expression, Niclosamide vs. Predose (qRT-PCR) [2]: increased significantly

Source: patent US20210379085A1, “HALOGENATED SALICYLANILIDES FOR TREATING THE SYMPTOMS OF DERMATITIS” (Union Therapeutics A/S, priority 2018, published 2021)
